Data taken from US20240025906A1 (NEURON23, INC., priority 2022, published 2024).
Read-outs that look alike come from different tables or passages of the source.

What was measured:
[1] = test system: JAK1/TYK2 pSTAT5 (Tyr694/699) in THP-1 cell line; assay: IFNa-stimulated JAK1/TYK2 pSTAT5 (Tyr694/699) inhibition cellular assay, AlphaLISA; type: cell-based; settings: Homo sapiens, THP-1 cells, AlphaLISA (Assay B)
Outline: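 THP-1 cells (2e4/well) in HBSS preincubated 1 h at 37° C. with compound (final 10000–0.04 nM, 8 points, 6-fold), then stimulated with IFNa (100 ng/mL stock) for 30 min before lysis. pSTAT5 (Tyr694/699) read by AlphaLISA at 615 nm; IC50 from four-parameter logistic fit with bottom fixed at 0 and Hill slope at −1.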

[2] = target: T1, TYK2 JH2 (Homo sapiens, UniProt P29597); assay: TYK2 JH2 binding assay (KINOMEscan KdELECT competitive binding); settings: TYK2 JH2 domain
T1 construct: purchased DiscoverX (KINOMEscan KdELECT service); host or cells: E. coli BL21-derived (T7 phage display) or HEK-293
Outline: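 JH2-domain fragment, expressed as T7 phage tag in BL21-derived E. coli or DNA-tagged from HEK-293, competed with test compound against bead-immobilized biotinylated ligand in binding buffer (0.9% DMSO). 1 h shaking at room temperature; bound kinase eluted with 0.5 μM free ligand and quantified by qPCR. Kd from 11-point 3-fold dilutions.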

[3] = IFNa-stimulated, read-out: Cellular_THP1_IFNa-pSTATS_TYK2
[4] = KINOMEscan KdELECT (Assay A), read-out: Biochemical TYK2_DiscoverX_JH2_BND_Kd
[5] = DiscoverX KINOMEscan KdELECT (Assay A), read-out: Biochemical TYK2_DiscoverX_JH2_BND_Kd
[6] = IFNa-stimulated, read-out: Cellular THP1_IFNa-pSTATS_IC50
[7] = KINOMEscan KdELECT (Assay A), read-out: Biochemical TYK2_JH2_Kd
[8] = IFNa-stimulated pSTAT5 (Tyr694/699), read-out: Cellular_THP1_IFNa-pSTATS_TYK2

T1 sequence (P29597 589-875 limits assumed): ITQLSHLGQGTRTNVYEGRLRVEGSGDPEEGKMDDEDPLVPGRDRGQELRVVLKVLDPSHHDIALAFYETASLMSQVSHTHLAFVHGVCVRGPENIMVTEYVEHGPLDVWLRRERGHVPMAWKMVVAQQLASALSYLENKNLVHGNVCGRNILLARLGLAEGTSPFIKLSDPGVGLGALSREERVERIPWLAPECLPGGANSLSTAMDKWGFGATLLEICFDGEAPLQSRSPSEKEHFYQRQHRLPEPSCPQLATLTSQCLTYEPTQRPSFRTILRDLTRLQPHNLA

Row | SMILES | IC50 [1, 3] [nM] | Kd [2, 4] [nM] | Kd [2, 5] [nM] | further results
1 | C#Cc1cnc(NC)c2cnc(NC(=O)C3CC3)cc12 [Example 125, N-(5-ethynyl-8-(methylamino)-2,7-naphthyridin-3-yl)cyclopropanecarboxamide] | – | – | – | IC50 [1, 6]: > 500 nM; Kd [2, 7]: ≤ 100 nM
2 | CNc1ncc(-c2nc3cc(N4CCOCC4)ccc3o2)c2cc(NC(=O)C3C[C@@H]3C(F)(F)F)ncc12 (stereo partly drawn) [Example 1065, N-(8-(methylamino)-5-(5-morpholinobenzo[d]oxazol-2-yl)-2,7-naphthyridin-3-yl)-2-(trifluoromethyl)cyclopropane-1-carboxamide] | – | ≤ 100 | – | IC50 [1, 8]: ≤ 500 nM
3 | CNc1ncc(C#Cc2ccc(OCC(C)(C)F)cc2)c2cc(NC(=O)C3CC3)ncc12 [Example 731, N-(5-((4-(2-fluoro-2-methylpropoxy)phenyl)ethynyl)-8-(methylamino)-2,7-naphthyridin-3-yl)cyclopropanecarboxamide] | > 500 | ≤ 100 | – | –
4 | CNc1ncc(C#Cc2ccccc2)c2cc(NC(=O)C3CC3)ncc12 [Example 137, N-(8-(methylamino)-5-(phenylethynyl)-2,7-naphthyridin-3-yl)cyclopropanecarboxamide] | – | – | – | IC50 [1, 6]: ≤ 500 nM; Kd [2, 7]: ≤ 100 nM
5 | CNc1ncc(-c2nc3cc(N4CC5COCC(C4)N5C)ccc3o2)c2cc(NC(=O)C3CC3)ncc12 [Example 447, N-(5-(5-(9-methyl-3-oxa-7,9-diazabicyclo[3.3.1]nonan-7-yl)benzo[d]oxazol-2-yl)-8-(methylamino)-2,7-naphthyridin-3-yl)cyclopropanecarboxamide] | ≤ 500 | – | ≤ 100 | –
6 | CNc1ncc(C#Cc2ccc3c(c2)OCC(COC)O3)c2cc(NC(=O)C3CC3)ncc12 (stereo not drawn) [Example 697, N-(5-((2-(methoxymethyl)-2,3-dihydrobenzo[b][1,4]dioxin-6-yl)ethynyl)-8-(methylamino)-2,7-naphthyridin-3-yl)cyclopropanecarboxamide] | ≤ 500 | ≤ 100 | – | –
7 | CNc1ncc(C#Cc2ccc(N3CCOCC3)cc2)c2cc(NC(=O)[C@@H]3C[C@@H]3C(F)F)ncc12 (single isomer, unassigned) [Example 1074] | – | ≤ 100 | – | IC50 [1, 8]: ≤ 500 nM
8 | CCNc1ncc(C#Cc2ccc(OC)cn2)c2cc(NC(=O)C3CC3)ncc12 [Example 594, N-(8-(ethylamino)-5-((5-methoxypyridin-2-yl)ethynyl)-2,7-naphthyridin-3-yl)cyclopropanecarboxamide] | ≤ 500 | ≤ 100 | – | –
9 | CNc1ncc(-c2nc3cc(N4CC(CC(F)F)C4)ccc3o2)c2cc(NC(=O)C3CC3)ncc12 [Example 319, N-(5-(5-(3-(2,2-difluoroethyl)azetidin-1-yl)benzo[d]oxazol-2-yl)-8-(methylamino)-2,7-naphthyridin-3-yl)cyclopropanecarboxamide] | ≤ 500 | – | ≤ 100 | –
10 | CNc1ncc(-c2nc3cc(N4C[C@@H](C)O[C@@H](C)C4)ccc3o2)c2cc(NC(=O)[C@H]3C[C@H]3C)ncc12 [Example 1063, (1S,2R)-N-[5-[5-[(2R,6S)-2,6-dimethylmorpholin-4-yl]-1,3-benzoxazol-2-yl]-8-(methylamino)-2,7-naphthyridin-3-yl]-2-methyl-cyclopropanecarboxamide] | – | ≤ 100 | – | IC50 [1, 8]: ≤ 500 nM
11 | CNc1ncc(C#Cc2cn(C)cn2)c2cc(NC(=O)[C@H]3C[C@H]3C)ncc12 [Example 1008, (1S,2R)-2-methyl-N-(5-((1-methyl-1H-imidazol-4-yl)ethynyl)-8-(methylamino)-2,7-naphthyridin-3-yl)cyclopropane-1-carboxamide] | – | ≤ 100 | – | IC50 [1, 8]: ≤ 500 nM
12 | CNc1ncc(-c2nc3cc(N4C[C@@H](C)O[C@H](C)C4)ccc3o2)c2cc(NC(=O)C3CC3)ncc12 (racemic) [Example 316, N-(5-(5-(2,6-dimethylmorpholino)benzo[d]oxazol-2-y1)-8-(methylamino)-2,7-naphthyridin-3-yl)cyclopropanecarboxamide (trans racemate)] | ≤ 500 | – | ≤ 100 | –
13 | CCn1nccc1-c1cnc(NC)c2cnc(NC(=O)C3CC3)cc12 [Example 19, N-(5-(1-ethyl-1H-pyrazol-5-yl)-8-(methylamino)-2,7-naphthyridin-3-yl)cyclopropanecarboxamide] | – | – | – | IC50 [1, 6]: > 500 nM; Kd [2, 7]: ≤ 100 nM
14 | [2H]C([2H])([2H])Nc1ncc(-c2nc3cc(OC)ccc3o2)c2cc(NC(=O)C3CC3)ncc12 [Example 362, N-(5-(5-methoxybenzo[d]oxazol-2-yl)-8-((methyl-d3)amino)-2,7-naphthyridin-3-yl)cyclopropanecarboxamide] | ≤ 500 | – | ≤ 100 | –

Continued, in another order:

Row | IC50 [1, 3] [nM] | Kd [2, 4] [nM] | Kd [2, 5] [nM] | SMILES | further results
15 | ≤ 500 | ≤ 100 | – | CNc1ncc(C#Cc2ccn3ncnc3c2)c2cc(NC(=O)C3CC3)ncc12 [Example 609, N-(5-([1,2,4]triazolo[1,5-a]pyridin-7-ylethynyl)-8-(methylamino)-2,7-naphthyridin-3-yl)cyclopropanecarboxamide] | –
16 | ≤ 500 | ≤ 100 | – | CNc1ncc(-c2ccc(Oc3ccnc(C)c3)cc2)c2cc(NC(=O)C3CC3)ncc12 [Example 862, N-(8-(methylamino)-5-(4-((2-methylpyridin-4-yl)oxy)phenyl)-2,7-naphthyridin-3-yl)cyclopropanecarboxamide] | –
17 | ≤ 500 | ≤ 100 | – | CNc1ncc(C#Cc2ccc(-n3cccn3)cn2)c2cc(NC(=O)C3CC3)ncc12 [Example 954, N-(5-((5-(1H-pyrazol-1-yl)pyridin-2-yl)ethynyl)-8-(methylamino)-2,7-naphthyridin-3-yl)cyclopropanecarboxamide] | –
18 | ≤ 500 | – | ≤ 100 | CNc1ncc(-c2nc3cc(N4CCO[C@H](C)C4)ccc3o2)c2cc(NC(=O)[C@H]3C[C@H]3C)ncc12 [Example 419, (1S,2R)-2-methyl-N-(8-(methylamino)-5-(5-((R)-2-methylmorpholino)benzo[d]oxazol-2-yl)-2,7-naphthyridin-3-yl)cyclopropane-1-carboxamide] | –
19 | ≤ 500 | ≤ 100 | – | CNc1ncc(-c2ccc(OCc3ccncc3)cc2)c2cc(NC(=O)C3CC3)ncc12 [Example 867, N-(8-(methylamino)-5-(4-(pyridin-4-ylmethoxy)phenyl)-2,7-naphthyridin-3-yl)cyclopropanecarboxamide] | –
20 | ≤ 500 | ≤ 100 | – | CNc1ncc(C#Cc2ncc(OC)cc2CF)c2cc(NC(=O)C3CC3)ncc12 [Example 963, N-[5-[2-[3-(fluoromethyl)-5-methoxy-2-pyridyl]ethynyl]-8-(methylamino)-2,7-naphthyridin-3-yl]cyclopropanecarboxamide] | –
21 | ≤ 500 | ≤ 100 | – | CNc1ncc(-c2nc3cc(C4(C)CCCO4)ccc3o2)c2cc(NC(=O)C3CC3)ncc12 (stereo not drawn) [Example 947, N-(8-(methylamino)-5-(5-(2-methyltetrahydrofuran-2-yl)benzo[d]oxazol-2-yl)-2,7-naphthyridin-3-yl)cyclopropanecarboxamide] | –
22 | ≤ 500 | – | ≤ 100 | CNc1ncc(-c2nc3ccc(N4CCO[C@H](C)C4)cn3n2)c2cc(Nc3ccccn3)ncc12 [Example 551, (R)—N^1-methyl-4-(6-(2-methylmorpholino)-[1,2,4]triazolo[1,5-a]pyridin-2-yl)-N^6-(pyridin-2-yl)-2,7-naphthyridine-1,6-diamine] | –
23 | ≤ 500 | ≤ 100 | – | CNc1ncc(C#Cc2ccc3ocnc3c2)c2cc(NC(=O)C3CC3)ncc12 [Example 622, N-(5-(benzo[d]oxazol-5-ylethynyl)-8-(methylamino)-2,7-naphthyridin-3-yl)cyclopropanecarboxamide] | –
24 | ≤ 500 | – | ≤ 100 | CNc1ncc(-c2nc3ccc(OCCS(C)(=O)=O)cn3n2)c2cc(NC(=O)C3CC3)ncc12 [Example 510, N-(8-(methylamino)-5-(6-(2-(methylsulfonyl)ethoxy)-[1,2,4]triazolo[1,5-a]pyridin-2-yl)-2,7-naphthyridin-3-yl)cyclopropanecarboxamide] | –
25 | ≤ 500 | – | ≤ 100 | CNc1ncc(-c2nc3cc(N4CCCOCC4)ccc3o2)c2cc(NC(=O)C3CC3)ncc12 [Example 318, N-(5-(5-(1,4-oxazepan-4-yl)benzo[d]oxazol-2-yl)-8-(methylamino)-2,7-naphthyridin-3-yl)cyclopropanecarboxamide] | –
26 | ≤ 500 | – | ≤ 100 | CNc1ncc(-c2nc3ccc(N4CCO[C@@H](C)C4)cn3n2)c2cc(NC(=O)C3(F)CC3)ncc12 [Example 540, (S)-1-fluoro-N-(8-(methylamino)-5-(6-(2-methylmorpholino)-[1,2,4]triazolo[1,5-a]pyridin-2-yl)-2,7-naphthyridin-3-yl)cyclopropane-1-carboxamide] | –
27 | ≤ 500 | – | ≤ 100 | [2H]C([2H])([2H])Nc1ncc(-c2nc3cc(OC([2H])([2H])[2H])ccc3o2)c2cc(NC(=O)[C@H]3C[C@H]3C)ncc12 [Example 439, (1S,2R)—N-(5-(5-(methoxy-d3)benzo[d]oxazol-2-yl)-8-((methyl-d3)amino)-2,7-naphthyridin-3-yl)-2-methylcyclopropane-1-carboxamide] | –
